Data taken from patent publication US5326766A, “4-(2-(4-(2-pyridinyloxy)phenyl)ethoxy)quinazoline and analogues thereof” (priority 1992, dated 1994).

Columns and labels:
[1] = test system: Plasmopara viticola (downy mildew); experiment: Foliar spray fungicide test, Plasmopara viticola (downy mildew) on grape; conditions: Plasmopara viticola, foliar, read-out: PLASVI disease control
Experimental: (§3) The test compounds were formulated for application by dissolving 50 mg of the compound into 1.25 ml of solvent. The solvent was prepared by mixing 50 ml of "Tween 20" (polyoxyethylene (20) sorbitan monolaurate emulsifier) with 475 ml of acetone and 475 ml of ethanol. The solvent/compound solution was diluted to 125 ml with deionized water. The resulting formulation contains 400 ppm test chemical. Lower concentrations were obtained by serial dilution with the solvent-surfactant mixture.
(§4) The formulated test compounds were applied by foliar spray.
(§5) The formulated technical compounds were sprayed on all foliar surfaces of the host plants to past run-off. Single pots of each host plant were placed on raised, revolving pedestals in a fume hood. Test solutions were sprayed on all foliar surfaces. All treatments were allowed to dry and the plants were inoculated with the appropriate pathogens within 24 hours.
(§6) The effectiveness of test compounds in controlling disease was rated using the following scale.

[2] = test system: tobacco budworm (Heliothis virescens); experiment: Activity against tobacco budworm; format: in vivo; conditions: Heliothis virescens, 144 h, 6 days, read-out: TBW activity (rated on live and dead larvae and size of live larvae)
Experimental: (§1) The compounds identified in Table I were tested for miticidal and insecticidal activity against eight species. The following abbreviations are used in the Table III:
TBW refers to tobacco budworm
(§2) In conducting evaluations of insecticidal activity, each test compound was formulated as a 400 ppm solution, and this solution was then diluted with water to give lesser concentrations. The 400 ppm solution was prepared by combining 19.2 mL of 0.05% solution of Tween 20 (polyoxyethylene (20) sorbitan monolaurate) in water with a solution of 8 mg of the compound in 0.8 mL of acetone/EtOH (9/1).
Activity against tobacco budworm (Heliothis virescens) was evaluated as follows. A general purpose lepidoptera artificial diet was diluted to half strength with a 5% non nutritive agar. 8 mL of this diet material was dispensed into each one ounce diet cup. One hour prior to treatment 18 to 20 eggs were dispensed onto the diet surface. The cups were then sprayed with formulated material through a flat-fan nozzle. The test was run using concentrations of 400 ppm and 50 ppm. Treated cups were air dried prior to sealing with plastic caps. The cups were held for 6 days at room temperature. Activity was then rated based on the total number of live and dead larvae, and on the size of live larvae.

[3] = test system: aster leafhopper (Macrosteles fascifrons); experiment: whole plant or invertebrate; format: in vivo; conditions: Macrosteles fascifrons, 24 h, read-out: ALH percent mortality
Experimental: as §1
ALH refers to aster leafhopper
as §2
Activity against aster leafhopper (Macrosteles fascifrons) was tested as follows. The test was run using concentrations of 400 ppm and 50 ppm. One ounce plastic cups containing a cotton wick was sprayed with 0.4 mL of formulated material using a flat-fan nozzle. The excess moisture was allowed to evaporate. Then five to ten carbon dioxide anesthetized adult leafhoppers were added to each cup. The cups were capped and held at room temperature for 24 hours. Percent mortality was then determined.

[4] = test system: cotton aphid (Aphis gossypii); experiment: whole plant or invertebrate; conditions: 72 h; for mortality at 400 ppm: read-out: CA activity (percent based on aphids present in plants sprayed with solvent alone), 400 ppm, squash plants, three days after treatment; for mortality at 50 ppm: read-out: CA activity (percent based on aphids present in plants sprayed with solvent alone), 50 ppm, squash plants, three days after treatment
[5] = test system: German cockroach (Blattella germanicus); experiment: whole plant or invertebrate; format: in vivo; conditions: 240 h, ten days, read-out: GECR activity (rated on live and dead insects)
Experimental: as §1
GECR refers to German cockroach
as §2
Activity against German cockroach (Blattella germanicus) was evaluated as follows. 8 mL of alfalfa based green insect diet material was dispensed into a one ounce diet cup. The cups were then sprayed with formulated material through a flat-fan nozzle. The test was run using concentrations of 400 ppm and 50 ppm. Treated cups were air dried for 24 hours and infested with five late third or early fourth instar German cockroaches. The cups were capped and held for ten days in an environmental growth chamber at a temperature of […]. Activity was then rated based on the total number of live and dead insects.

[6] = test system: two spotted spider mite (Tetranychus urticae); experiment: whole plant or invertebrate; conditions: 72 h; for mortality at 400 ppm: read-out: TSSM activity (percent based on mites present in plants sprayed with solvent alone), 400 ppm, squash plants, three days after treatment; for mortality at 50 ppm: read-out: TSSM activity (percent based on mites present in plants sprayed with solvent alone), 50 ppm, squash plants, three days after treatment
[7] = test system: Pyricularia oryzae (rice blast); experiment: whole plant or invertebrate; format: in vivo; conditions: Pyricularia oryzae, foliar, read-out: PYRIOR disease control, host rice; foliar spray; 400 ppm (+++: 100 ppm)
[8] = test system: Erysiphe graminis tritici (powdery mildew); experiment: Foliar spray fungicide test, Erysiphe graminis tritici (powdery mildew) on wheat; conditions: Blumeria graminis, in Triticum aestivum, foliar, read-out: ERYSGT disease control, host wheat, 400 ppm (+++: 100 ppm)
Experimental: as §3
The formulated test compounds were applied by foliar spray. The following plant pathogens and their corresponding plants were employed.
as §5, §6

[9] = test system: Puccinia recondita tritici (leaf rust); experiment: Foliar spray fungicide test, Puccinia recondita tritici (leaf rust) on wheat; conditions: Puccinia recondita, in Triticum aestivum, foliar, read-out: PUCCRT disease control, host wheat, 400 ppm (+++: 100 ppm)
[10] = test system: beet armyworm (Spodoptera exiqua); experiment: Activity against beet armyworm; format: in vivo; conditions: Spodoptera, 144 h, 6 days, read-out: BAW activity (rated on live and dead larvae and size of live larvae)
Experimental: as §1
BAW refers to beet armyworm
as §2
Activity against beet armyworm (Spodoptera exiqua) was evaluated as follows. The test is run using concentrations of 400 ppm and 50 ppm. A general purpose lepidoptera artificial diet was diluted to half strength with a 5% non nutritive agar. 8 mL of this diet material was dispensed into one ounce diet cups. One hour prior to treatment, 35 to 40 eggs were dispensed onto the diet surface. The cups were then sprayed with formulated material through a flat-fan nozzle. Treated cups were air dried prior to sealing with plastic caps. The cups were held for 6 days at room temperature. Activity was then rated based on the total number of live and dead larvae, and on the size of live larvae.

[11] = test system: Leptosphaeria nodorum (glume blotch); experiment: Foliar spray fungicide test, Leptosphaeria nodorum (glume blotch) on wheat; conditions: Parastagonospora nodorum, in Triticum aestivum, foliar, read-out: LETPNO disease control, host wheat, 400 ppm (+++: 100 ppm)
Experimental: as §3, §4, §5, §6

[12] = test system: Southern corn rootworm (Diabrotica undecimpuctata howardi Barber); experiment: whole plant or invertebrate; format: in vivo; conditions: 400 ppm, soil concentration of 24 ppm, 3-4 days, read-out: SCRW mortality
Experimental: as §1
SCRW refers to southern corn rootworm
as §2
Activity on Southern corn rootworm (Diabrotica undecimpuctata howardi Barber) was evaluated by adding one mL of test solution containing a predetermined concentration of test compound to a cup containing a kernel of corn in 16 g of sterile soil. This produces a soil concentration of 24 ppm. After 1.5 to 2 hours of drying, five 4th instar corn rootworm larvae were added to the individual cups. Mortality was measured at 3-4 days by emptying the cup onto a pan and inspecting the soil for live rootworms.

SMILES | pest or weed control at 400 µg/mL [1] [%] | pest or weed control at 400 ppm [2] [%] | mortality at 400 ppm [3] [%] | mortality at 400 ppm [4] [%] | mortality at 400 ppm [5] [%] | mortality at 400 ppm [6] [%] | pest or weed control at 400 µg/mL [7] [%] | pest or weed control at 400 µg/mL [8] [%] | pest or weed control at 400 µg/mL [9] [%] | pest or weed control at 400 ppm [10] [%] | pest or weed control at 400 µg/mL [11] [%] | mortality at 24 ppm [12] [%] | pest or weed control at 50 ppm [2] [%] | mortality at 50 ppm [3] [%] | mortality at 50 ppm [4] [%] | mortality at 50 ppm [5] [%] | mortality at 50 ppm [6] [%] | pest or weed control at 50 ppm [10] [%]
ClC(Cl)(Cl)c1ccc(Oc2ccc(CCOc3ncnc4ccccc34)cc2)nc1 [Compound 26] | 90 to 100 | 100 | 100 | 100 | 0 | 100 | 20 to 89 | 0 to 19 | 90 to 100 | 0 | 0 to 19 | 0 | – | – | – | – | – | –
Fc1cccc2c(OCCc3ccc(Oc4cc(C(F)(F)F)ccn4)cc3)ncnc12 [Compound 12] | 90 to 100 | 100 | 100 | 100 | 60 | 100 | 90 to 100 | 90 to 100 | 90 to 100 | 100 | 20 to 89 | 0 | 70 | 80 | 100 | 0 | 90 | 100
N#Cc1ccc(Oc2ccc(CCOc3ncnc4c(F)cccc34)cc2)nc1 [Compound 20] | 90 to 100 | 0 | 0 | 0 | 0 | 0 | 90 to 100 | 90 to 100 | 90 to 100 | 0 | 20 to 89 | 0 | – | – | – | – | – | –
COc1cc(C(Cl)(Cl)Cl)cc(Oc2ccc(CCNc3ncnc4c(F)cccc34)cc2)n1 [Compound 35] | 0 to 19 | 80 | 80 | 0 | 0 | 0 | 0 to 19 | 0 to 19 | 90 to 100 | 100 | 0 to 19 | 0 | 0 | 0 | 0 | – | 0 | 100
Fc1cc(C(F)(F)F)cnc1Oc1ccc(CCNc2ncnc3c(F)cccc23)cc1 [Compound 6] | 90 to 100 | 100 | 100 | 0 | 20 | 0 | 90 to 100 | 90 to 100 | 90 to 100 | 100 | 90 to 100 | 0 | 100 | 100 | 0 | 40 | 0 | 100
c1cnc(Oc2ccc(CCOc3ncnc4ccccc34)cc2)nc1 [Compound 45] | 90 to 100 | 100 | 40 | 100 | 20 | 60 | 90 to 100 | 90 to 100 | 90 to 100 | 100 | 0 to 19 | 0 | 100 | 60 | 100 | 0 | 40 | 100
O=[N+]([O-])c1ccc(Oc2ccc(CCOc3ncnc4c(F)cccc34)cc2)nc1 [Compound 23] | 90 to 100 | 100 | 80 | 90 | 40 | 50 | 20 to 89 | 20 to 89 | 90 to 100 | 100 | 20 to 89 | 0 | 100 | 60 | 0 | 0 | 0 | 100
Fc1cccc2c(NCCc3ccc(Oc4ccc(C(F)(F)F)cn4)cc3)ncnc12 [Compound 28, 8-Fluoro-4-(2-(4-(5-(trifluoromethyl)-2-pyridinyloxy)phenyl)ethylamino)quinazoline] | 90 to 100 | 100 | 100 | 100 | 80 | 100 | 20 to 89 | 90 to 100 | 90 to 100 | 100 | 90 to 100 | 0 | 100 | 100 | 100 | 0 | 100 | 100
